How the values were obtained:
[1] = biological target: T1, human cathepsin F (Homo sapiens, UniProt Q9UBX1); assay: Cathepsin F Assay; format: biochemical; settings: IP from dose response curve; Z-Phe-Arg-AMC substrate, pH 5.5; read-out: hCat F (IP (nM))
T1 sequence (Q9UBX1 271-484): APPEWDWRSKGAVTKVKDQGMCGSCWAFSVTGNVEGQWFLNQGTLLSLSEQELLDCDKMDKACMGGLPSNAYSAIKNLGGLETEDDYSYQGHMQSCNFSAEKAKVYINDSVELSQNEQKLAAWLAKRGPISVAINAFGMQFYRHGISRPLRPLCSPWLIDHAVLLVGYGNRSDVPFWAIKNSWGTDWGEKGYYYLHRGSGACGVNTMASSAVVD
Procedure: Serial dilutions (1/3) from 500 μM down to 0.025 μM of test compounds were prepared in dimethyl sulfoxide (DMSO). Then 0.5 μL of DMSO from each dilution were added to 18.75 μL of assay buffer (MES, 50 mM (pH 5.5); EDTA, 2.5 mM; DTT, 2.5 mM and 10% DMSO) containing human cathepsin F (10 nM) in assay buffer solution. The assay solutions were mixed for 5-10 seconds on a shaker plate and incubated for 15 minutes at room temperature. Z-Phe-Arg-AMC (8 μM) in 6.25 μL of assay buffer was added to the assay solutions. Hydrolysis of the coumarin leaving group (AMC) was followed by spectrofluorometry (Exλ=360 nm; Emλ=460 nm) for 20 minutes. Percent of inhibition were calculated by fitting experimental values to standard mathematical model for dose response curve.

[2] = biological target: human cathepsin K (UniProt P43236, Y175D/V274L, species not given); assay: Cathepsin K Assay; format: biochemical; settings: IP from dose response curve; Z-Leu-Arg-AMC substrate, pH 5.5; read-out: hrbCat K (IP (nM))

Compound	IC50 [1] [nM]	IC50 [2] [nM]
COc1ccccc1-n1cc(-c2ccc(N3CCS(=O)(=O)CC3)cc2)c([C@@H]2CCCC[C@H]2C(=O)NC2(C#N)CC2)n1 [Example 92, (1R,2R)-N-(1-cyanocyclopropyl)-2-(4-(4-(1,1-dioxidothiomorpholino)phen-yl)-1-(2-methoxyphenyl)-1H-pyrazol-3-yl)cyclohexanecarboxamide]	484	0.95
N#CC1(NC(=O)[C@@H]2CCCC[C@H]2c2nn(-c3ccncc3)cc2-c2ccc(N3CCS(=O)(=O)CC3)cc2)CC1 [Example 163, (1R,2R)-N-(1-cyanocyclopropyl)-2-(4-(4-(1,1-dioxidothiomorpholino)phen-yl)-1-(pyridin-4-yl)-1H-pyrazol-3-yl)cyclohexanecarboxamide]	237	0.32
CN=S1(=O)CCN(c2ccc(-c3c([C@@H]4CCCC[C@H]4C(=O)N[C@H](C#N)C(C)C)nn(-c4ncccc4F)c3C)cc2)CC1 [Example 48, (1R,2R)-N-((S)-1-cyano-2-methylpropyl)-2-(1-(3-fluoropyridin-2-yl)-5-methyl-4-(4-(1-(methylimino)-1-oxidothiomorpholino)phenyl)-1H-pyrazol-3-yl)cyclohexanecarboxamide]	7350	19.2
Cc1ccc(-n2cc(-c3ccc(N4CCS(=O)(=O)CC4)cc3)c([C@@H]3CCCC[C@H]3C(=O)NC3(C#N)CC3)n2)nn1 [Example 7, (1R,2R)—N-(1-Cyanocyclopropyl)-2-(4-(4-(1,1-dioxidothiomorpholino)phenyl)-1-(6-methylpyridazin-3-yl)-1H-pyrazol-3-yl)cyclohexanecarboxamide]	517	1.54
Cc1c(-c2ccc(N3CCS(=O)(=O)CC3)cc2)c([C@@H]2CCCC[C@H]2C(=O)NC2(C#N)CC2)nn1-c1ccc(F)cc1 [Example 139, (1R,2R)-N-(1-cyanocyclopropyl)-2-(4-(4-(1,1-dioxidothiomorpholino)phen-yl)-1-(4-fluorophenyl)-5-methyl-1H-pyrazol-3-yl)cyclohexanecarboxamide]	649	7.48
Cc1ccc(-n2cc(-c3ccc(N4CCS(=O)(=O)CC4)cc3)c([C@@H]3CCCC[C@H]3C(=O)NC3(C#N)CC3)n2)c(C#N)c1 [Example 107, (1R,2R)-2-(1-(2-cyano-4-methylphenyl)-4-(4-(1,1-dioxidothiomorpholino)phen-yl)-1H-pyrazol-3-yl)-N-(1-cyanocyclopropyl)cyclohex-anecarboxamide]	1400	3
CS(=O)(=O)N1CCN(C(=O)c2ccc(-c3cn(-c4ccc(F)cc4)nc3[C@@H]3CCCC[C@H]3C(=O)NC3(C#N)CC3)cc2)CC1 [Example 93, (1R,2R)-N-(1-cyanocyclopropyl)-2-(1-(4-fluorophenyl)-4-(4-(4-(methylsulfonyl)piperazine-1-carbonyl)phenyl)-1H-pyrazol-3-yl)cyclohexanecarboxamide]	2350	5.02
N#CC1(NC(=O)[C@@H]2CCCC[C@H]2c2nn(-c3ccc(F)cc3)cc2-c2ccc(C3CN(C(=O)NCC(F)(F)F)C3)cc2)CC1 [Example 136, 3-(4-(3-((1R,2R)-2-((1-cyanocyclopropyl)carbamoyl)cyclohexyl)-1-(4-fluorophenyl)-1H-pyrazol-4-yl)phenyl)-N-(2,2,2-trifluoroethyl)azetidine-1-carboxamide]	83	0.97
CN=S1(=O)CCN(c2ccc(-c3cn(-c4ccc(F)cn4)nc3[C@@H]3CC[C@H](F)C[C@H]3C(=O)N[C@@H](C)C#N)cc2)CC1 [Example 38, (1R,2R,5S)-N-((S)-1-cyanoethyl)-5-fluoro-2-(1-(5-fluoropyridin-2-yl)-4-(4-(1-(methylimino)-1-oxidothiomorpholino)phenyl)-1H-pyrazol-3-yl)cyclohexanecarboxamide]	855	1.14
N#CC1(NC(=O)[C@@H]2CCCC[C@H]2c2nn(-c3cccnc3)cc2-c2ccc(N3CCS(=O)(=O)CC3)cc2)CC1 [Example 164, (1R,2R)-N-(1-cyanocyclopropyl)-2-(4-(4-(1,1-dioxidothiomorpholino)phen-yl)-1-(pyridin-3-yl)-1H-pyrazol-3-yl)cyclohexanecarboxamide]	697	0.48
C[C@@H](C#N)NC(=O)[C@@H]1CC(F)(F)CC[C@H]1c1nn(-c2ccc(F)cc2)c(CO)c1-c1ccc(N2CCS(=O)(=O)CC2)cc1 [Example 61, (1R,2R)-N-((S)-1-cyanoethyl)-2-(4-(4-(1,1-dioxidothiomorpholino)phen-yl)-1-(4-fluorophenyl)-5-(hydroxymethyl)-1H-pyrazol-3-yl)-5,5-difluorocyclohexanecarbox-amide]	121	1.61
N#CC1(NC(=O)[C@@H]2CCCC[C@H]2c2nn(-c3ccc(C(O)C(F)(F)F)cc3)cc2-c2ccc(N3CCS(=O)(=O)CC3)cc2)CC1 (mixture of isomers) [Example 113, (1R,2R)-N-(1-cyanocyclopropyl)-2-(4-(4-(1,1-dioxidothiomorpholino)phen-yl)-1-(4-((S and R)-2,2,2-trifluoro-1-hydroxyethyl)phenyl)-1H-pyrazol-3-yl)cyclohexanecarboxamide]	360	0.88
N#CC1CCN(c2ccc(-c3cn(-c4ccc(F)cc4)nc3[C@@H]3CCCC[C@H]3C(=O)NC3(C#N)CC3)cc2)CC1 [Example 1, (1R,2R)—N-(1-Cyanocyclopropyl)-2-(4-(4-(4-cyanopiperidin-1-yl)phenyl)-1-(4-fluorophenyl)-1H-pyrazol-3-yl)cyclohexanecarboxamide]	698	2.72
N#Cc1cccc(-n2cc(-c3ccc(N4CCS(=O)(=O)CC4)cc3)c([C@@H]3CCCC[C@H]3C(=O)NC3(C#N)CC3)n2)c1 [Example 101, (1R,2R)-N-(1-cyanocyclopropyl)-2-(1-(3-cyanophenyl)-4-(4-(1,1-dioxidothiomorpholino)phen-yl)-1H-pyrazol-3-yl)cyclohexanecarboxamide]	452	0.99
CN=S1(=O)CCN(c2ccc(-c3cn(-c4ncccc4F)nc3[C@@H]3CC(F)(F)CC[C@H]3C(=O)N[C@H](C#N)C(C)C)cc2)CC1 [Example 36, (1R,2R)-N-((S)-1-cyano-2-methylpropyl)-4,4-difluoro-2-(1-(3-fluoropyridin-2-yl)-4-(4-(1-(methylimino)-1-oxidothiomorpholino)phenyl)-1H-pyrazol-3-yl)cyclohexanecarboxamide]	8180	8.79
N#CC1(NC(=O)[C@@H]2CCCC[C@H]2c2nn(-c3cncc(Cl)c3)cc2-c2ccc(N3CCS(=O)(=O)CC3)cc2)CC1 [Example 8, (1R,2R)-2-(1-(5-Chloropyridin-3-yl)-4-(4-(1,1-dioxidothiomorpholino)phenyl)-1H-pyrazol-3-yl)-N-(1-cyanocyclopropyl)cyclohexanecarboxamide]	215	0.75
COc1ccc(-n2cc(-c3ccc(N4CCS(=O)(=O)CC4)cc3)c([C@@H]3CCCC[C@H]3C(=O)NC3(C#N)CC3)n2)cc1 [Example 87, (1R,2R)-N-(1-cyanocyclopropyl)-2-(4-(4-(1,1-dioxidothiomorpholino)phen-yl)-1-(4-methoxyphenyl)-1H-pyrazol-3-yl)cyclohexanecarboxamide]	740	0.99
N#CC1(NC(=O)[C@@H]2CCCC[C@H]2c2nn(-c3cccc(C(F)(F)F)c3)cc2-c2ccc(N3CCS(=O)(=O)CC3)cc2)CC1 [Example 124, (1R,2R)-N-(1-cyanocyclopropyl)-2-(4-(4-(1,1-dioxidothiomorpholino)phen-yl)-1-(3-(trifluoromethyl)phenyl)-1H-pyrazol-3-yl)cyclohexanecarboxamide]	588	1.58
N#CC1(NC(=O)[C@@H]2CCCC[C@H]2c2nn(-c3cccc(F)c3)cc2-c2ccc(N3CCS(=O)(=O)CC3)cc2)CC1 [Example 86, (1R,2R)-N-(1-cyanocyclopropyl)-2-(4-(4-(1,1-dioxidothiomorpholino)phen-yl)-1-(3-fluorophenyl)-1H-pyrazol-3-yl)cyclohexanecarboxamide]	268	0.33
Cc1c(-c2ccc(N3CCS(=N)(=O)CC3)cc2)c([C@@H]2CCCC[C@H]2C(=O)N[C@@H](C)C#N)nn1-c1ncccc1F [Example 51, (1R,2R)-N-((S)-1-cyanoethyl)-2-(1-(3-fluoropyridin-2-yl)-4-(4-(1-imino-1-oxidothiomorpholino)phenyl)-5-methyl-1H-pyrazol-3-yl)cyclohexanecarboxamide]	3870	7.41
CN=S1(=O)CCN(c2ccc(-c3cn(-c4ccc(F)cn4)nc3[C@@H]3CCCC[C@H]3C(=O)NC3(C#N)CC3)cc2)CC1 [Example 156, (1R,2R)-N-(1-cyanocyclopropyl)-2-(1-(5-fluoropyridin-2-yl)-4-(4-(1-(methylimino)-1-oxidothiomorpholino)phenyl)-1H-pyrazol-3-yl)cyclohexanecarboxamide]	945	1.47
